These results are taken from patent publication US20220135567A1, “TYK2 PSEUDOKINASE LIGANDS” (Ventyx Biosciences, Inc., priority 2019, published 2022).

pIC50: −log10 of the molar value. Bounds are passed on as bounds.

As a reminder, the pIC50 is the negative decadic logarithm of the IC50, by convention in mol/L.

The assay concerns IFN-a/Jak1Tyk2. Nature of the assay: Co-stimulation assay in lysed whole blood: IFNa (JAK1/TYK2) stimulated STAT1 phosphorylation. The class given is cell-based. The conditions noted are these: 20 min, lysed human whole blood, IFNa 100 ng/mL + GM-CSF 10 ng/mL, pSTAT1 by flow cytometry. As to the method:
Dilute RBC lysis buffer to 1× in distilled water. Add 2 mL blood to 38 mL of 1×RBC-lysis buffer. Incubate for 15 mins at RT, in dark. Spin at 300 g, 5 mins, to collect the pellet. Re-lyse if necessary. Re-suspend pellet in 5 mL of cRPMI.
Aliquot 80 μL of lysed human blood in to wells of 96 deep-well plate. Add 10 μl of (10× conc.) of different concentrations of compounds to all wells except controls (unstained and unstimulated) and mix it with the help of 100 uL multichannel. Add 10 uL of RPMI media in controls. For dilution of compounds and dilution range please refer Appendix. Incubate on water bath or CO2 incubator for 1 hour at 37° C. Add 10 μl of (10× conc.) of cytokine mix (GM-CSF and IFNa) (final conc. 10 ng/mL of GM-CSF and 100 ng/mL of IFNa) to each well except unstimulated and unstained controls and incubate further for 20 minutes on water bath at 37° C.
Add 900 μL of prewarmed 1× Fix/Lyse solution (Appendix) and mix it properly using 1000 μl multichannel, incubate further on water bath at 37° C. for 10 minutes (which includes time of addition). Centrifuge at 800×g for 5 minutes at 40° C.; remove 900 uL of supernatant and add 900 μL of 1×PBS. Centrifuge at 800×g for 5 minutes at 40° C., remove 900 μL of supernatant. Wash one more time with 900 μL of PBS (optional) and resuspend pellets in 100 uL of PBS.
Disrupt the pellet by gentle tapping and resuspend in 1000 μL of BD Phosflow Perm Buffer III and incubate plate on ice for 30 minutes. Centrifuge plate at 800×g for 5 minutes at 40° C. Wash two more times with 1000 μL of BD Pharmingen Stain Buffer.
Disrupt the pellet by gentle tapping. Resuspend pellets in 100 uL of Stain Buffer and add 5 μL of pSTAT5_AF488 Ab and 5 uL of pSTAT1_PE in all wells except unstained control and mix properly using 200 μl multichannel, incubate overnight at […]. Add 900 μL of wash buffer and centrifuge at 1800 rpm for 3 minutes at […]. Wash one more time with 1000 μL of BD Pharmingen Stain Buffer. Finally resuspend the pellet in 300 uL of BD Pharmingen Stain Buffer. Transfer the cells to 96-well v-bottom plate and acquire the cells in Beckman Coulter CytExpert. Acquiring cells in Flow Cytometer: Keep the threshold value to 250 and cell concentration should not exceed 100-500 cells/μL. Acquire at least 5,000-10,000 cells.
Cytokine dilution: 1) GM-CSF Stock at 100 ug/mL. Prepare an intermediate dilution of 1 ug/mL by adding 2 uL of stock into 198 uL of cRPMI. Further dilute to 100 ng/mL by adding 100 uL of the intermediate stock to 900 uL of cRPMI. 2) IFNa Stock at 200 ug/mL. Dilute IFNa stock 1:200 by adding 5 uL of stock into the 1000 uL of 100 ng/mL GM-CSF working stock as above to give a combined working stock of 1000 ng/mL of IFNa and 100 ng/mL GM-CSF (10×). Keep it on ice until used.
Lyse/Fix buffer preparation: Dilute 5× Lyse/Fix buffer to 1× using MQ water and keep at 37° C. until used.
BD Phosflow perm buffer III: Keep on ice/fridge.

Turning to `CCOC(=O)c1nn(C)cc1Nc1cc(NC)n2ncc(C(=O)NC3CC3)c2n1` [Compound 42, ethyl 4-((3-(cyclopropylcarbamoyl)-7-(methylamino)pyrazolo[1,5-a]pyrimidin-5-yl)amino)-1-methyl-1H-pyrazole-3-carboxylate], the pIC50 was 6.00 to 7.00.
The value for `CNC(=O)c1nscc1Nc1cc(NC)n2ncc(C(=O)NC3CC3)c2n1` [Compound 43, 4-((3-(cyclopropylcarbamoyl)-7-(methylamino)pyrazolo[1,5-a]pyrimidin-5-yl)amino)-N-methylisothiazole-3-carboxamide] was > 7.00.
On to `CNC(=O)c1cscc1Nc1cc(NC)n2ncc(C(=O)NC3CC3)c2n1` [Compound 44, N-cyclopropyl-7-(methylamino)-5-((4-(methylcarbamoyl)thiophen-3-yl)amino)pyrazolo[1,5-a]pyrimidine-3-carboxamide], for which the pIC50 is 6.00 to 7.00.
Under `CCOC(=O)c1nscc1Nc1cc(NC)n2ncc(C(=O)NCCOC)c2n1` [Compound 45, ethyl 4-((3-((2-methoxyethyl)carbamoyl)-7-(methylamino)pyrazolo[1,5-a]pyrimidin-5-yl)amino)isothiazole-3-carboxylate] stands < 6.52; under `CNc1cc(Nc2csnc2C(=O)O)nc2c(C(=O)NCCOC)cnn12` [Compound 46, 4-((3-((2-methoxyethyl)carbamoyl)-7-(methylamino)pyrazolo[1,5-a]pyrimidin-5-yl)amino)isothiazole-3-carboxylic acid], < 6.52; under `CNc1cc(Nc2cnn(CCOC)c2)nc2c(C(=O)NC3CC3)cnn12` [Compound 47, N-cyclopropyl-5-((1-(2-methoxyethyl)-1H-pyrazol-4-yl)amino)-7-(methylamino)pyrazolo[1,5-a]pyrimidine-3-carboxamide], < 6.52.
Under `CNc1cc(Nc2cccc3c2OC(F)(F)O3)nc2c(C(=O)NCC(C)(C)CO)cnn12` [Compound 48, 5-((2,2-difluorobenzo[d][1,3]dioxol-4-yl)amino)-N-(3-hydroxy-2,2-dimethylpropyl)-7-(methylamino)pyrazolo[1,5-a]pyrimidine-3-carboxamide] stands > 7.00.
The value for `CNc1cc(Nc2c(Cl)ccc3c2OCO3)nc2c(C(=O)NCC(C)(C)CO)cnn12` [Compound 49, 5-((5-chlorobenzo[d][1,3]dioxol-4-yl)amino)-N-(3-hydroxy-2,2-dimethylpropyl)-7-(methylamino)pyrazolo[1,5-a]pyrimidine-3-carboxamide] was 5.00 to 6.00; that for `CNc1cc(Nc2cccc3c2OCO3)nc2c(C(=O)NCC(C)(C)CO)cnn12` [Compound 50, 5-(benzo[d][1,3]dioxol-4-ylamino)-N-(3-hydroxy-2,2-dimethylpropyl)-7-(methylamino)pyrazolo[1,5-a]pyrimidine-3-carboxamide] was > 7.00; that for `CNc1cc(Nc2cccc(N3CCN(C)CC3)c2)nc2c(C(=O)NC3CC3)cnn12` [Compound 51, N-cyclopropyl-7-(methylamino)-5-((3-(4-methylpiperazin-1-yl)phenyl)amino)pyrazolo[1,5-a]pyrimidine-3-carboxamide] was > 7.00.
As to `CNc1cc(Nc2cccc3c2OCCO3)nc2c(C(=O)NCC(F)(F)F)cnn12` [Compound 52, 5-((2,3-dihydrobenzo[b][1,4]dioxin-5-yl)amino)-7-(methylamino)-N-(2,2,2-trifluoroethyl)pyrazolo[1,5-a]pyrimidine-3-carboxamide], the pIC50 is 6.00 to 7.00.
Take `CNc1cc(Nc2ccnn2C)nc2c(C(=O)NC3CC3)cnn12` [Compound 53, N-cyclopropyl-5-((1-methyl-1H-pyrazol-5-yl)amino)-7-(methylamino)pyrazolo[1,5-a]pyrimidine-3-carboxamide]: the pIC50 was 6.00 to 7.00.
`CNc1cc(Nc2ccccc2OC(F)(F)F)nc2c(C(=O)NC3CC3)cnn12` [Compound 54, N-cyclopropyl-7-(methylamino)-5-((2-(trifluoromethoxy)phenyl)amino) pyrazolo[1,5-a]pyrimidine-3-carboxamide]: the pIC50 was 6.00 to 7.00.
Under `CNc1cc(Nc2cccc(N3CCOCC3)c2)nc2c(C(=O)NC3CC3)cnn12` [Compound 55, N-cyclopropyl-7-(methylamino)-5-((3-morpholinophenyl)amino)pyrazolo [1,5-a]pyrimidine-3-carboxamide] stands > 7.00; under `CNc1cc(Nc2cc(C)cnc2OC)nc2c(C(=O)NC3CC3)cnn12` [Compound 56, N-cyclopropyl-5-((2-methoxy-5-methylpyridin-3-yl)amino)-7-(methylamino)pyrazolo[1,5-a]pyrimidine-3-carboxamide], 6.00 to 7.00; under `CNc1cc(Nc2cc(Cl)ccc2OC(F)(F)F)nc2c(C(=O)NC3CC3)cnn12` [Compound 57, 5-((5-chloro-2-(trifluoromethoxy)phenyl)amino)-N-cyclopropyl-7-(methylamino)pyrazolo[1,5-a]pyrimidine-3-carboxamide], 6.00 to 7.00.
The value for `CC(C)(CO)CNC(=O)c1cnn2c(N)cc(Nc3cccc4c3OCO4)nc12` [Compound 58, 7-amino-5-(benzo[d][1,3]dioxol-4-ylamino)-N-(3-hydroxy-2,2-dimethylpropyl)pyrazolo[1,5-a]pyrimidine-3-carboxamide] was 6.00 to 7.00; that for `CC(C)(CO)CNC(=O)c1cnn2c(NC3CC3)cc(Nc3cccc4c3OCO4)nc12` [Compound 59, 5-(benzo[d][1,3]dioxol-4-ylamino)-7-(cyclopropylamino)-N-(3-hydroxy-2,2-dimethylpropyl)pyrazolo[1,5-a]pyrimidine-3-carboxamide] was 5.00 to 6.00.
With `CNc1cc(Nc2ccc3c(c2)CCN(C)C3)nc2c(C(=O)NC3CC3)cnn12` [Compound 60, N-cyclopropyl-5-((2-methyl-1,2,3,4-tetrahydroisoquinolin-6-yl)amino)-7-(methylamino)pyrazolo[1,5-a]pyrimidine-3-carboxamide], the pIC50 is 5.00 to 6.00.
For the molecule `CNc1cc(Nc2ccc3c(c2)CN(C)CC3)nc2c(C(=O)NC3CC3)cnn12` [Compound 61, N-cyclopropyl-5-((2-methyl-1,2,3,4-tetrahydroisoquinolin-7-yl)amino)-7-(methylamino)pyrazolo[1,5-a]pyrimidine-3-carboxamide], the pIC50 was 5.00 to 6.00.
The value for `CNc1cc(Nc2cc(C(F)(F)F)cnc2OC)nc2c(C(=O)NC3CC3)cnn12` [Compound 62, N-cyclopropyl-5-((2-methoxy-5-(trifluoromethyl)pyridin-3-yl)amino)-7-(methylamino)pyrazolo[1,5-a]pyrimidine-3-carboxamide] was 5.00 to 6.00.
The value for `CNc1cc(Nc2cccc3c2OCCO3)nc2c(C(=O)NCC(C)(C)O)cnn12` [Compound 63, 5-((2,3-dihydrobenzo[b][1,4]dioxin-5-yl)amino)-N-(2-hydroxy-2-methylpropyl)-7-(methylamino)pyrazolo[1,5-a]pyrimidine-3-carboxamide] was > 7.00; that for `CNc1cc(Nc2ccn(CC(F)(F)F)n2)nc2c(C(=O)NC3CC3)cnn12` [Compound 64, N-cyclopropyl-7-(methylamino)-5-((1-(2,2,2-trifluoroethyl)-1H-pyrazol-3-yl)amino)pyrazolo[1,5-a]pyrimidine-3-carboxamide] was < 6.52; that for `CNc1cc(Nc2cccc3c2OCCO3)nc2c(C(=O)NCC(C)(O)CO)cnn12` (stereo not shown) [Compound 65, 5-((2,3-dihydrobenzo[b][1,4]doxin-5-yl)amino)-N-(2,3-dihydroxy-2-methylpropyl)-7-(methylamino)pyrazolo[1,5-a]pyrimidine-3-carboxamide] was > 7.00.
Under `CNc1cc(Nc2cccn(-c3ccc(OC)nn3)c2=O)nc2c(C(=O)NCC(C)(C)CO)cnn12` [Compound 66, N-(3-hydroxy-2,2-dimethylpropyl)-5-((1-(6-methoxypyridazin-3-yl)-2-oxo-1,2-dihydropyridin-3-yl)amino)-7-(methylamino)pyrazolo[1,5-a]pyrimidine-3-carboxamide] stands 6.00 to 7.00.
